Format in all cases: in vivo, human
The test system of experiment [1] is subjects with MDD. Put plainly: Randomized, placebo-controlled, double-blind clinical study in subjects with MDD: MASQ and HAM-D symptom scores. From the text:
High AVP was defined as ≧8.6 pg/mL, in a sample drawn at approximately 8 am or 2 pm on the day prior to initiation of study drug administration. Least squares means and standard errors are shown from analyses of covariance that included Day −1 (baseline) score as a covariate and factors for investigator, treatment, AVP class and treatment * AVP class interaction.
(§1) A randomized, placebo-controlled, double-blind clinical study of the safety and pharmacodynamics of Compound A in subjects with MDD was conducted. Fifty-one subjects with a M.I.N.I.-confirmed primary diagnosis of MDD and a clinical global impression of severity of 3 or 4 were randomized to 800 mg Compound A QD (n=31) or matching placebo (n=20) for 7 days. Subjects were confined at clinical sites from two days prior to initial study drug administration until 24 hours after the last dose of study drug. HPA axis function was thoroughly assessed prior to study drug administration and on the 6th and 7th dosing days. A panel of genetic variants related to HPA axis function was assayed. One stated aim of this study was to define a means to identify MDD subjects more likely to respond to Compound A, prior to Compound A administration.
AVP was the only parameter initially analyzed as a potential predictor of Compound A response as the daytime plasma level prior to study drug administration, measured at any of three times of day (approximately 8 am, 2 pm, and 10 pm), was the most prominent difference of baseline HPA axis function between MDD subjects in this study and HNV subjects of other studies.
Receiver operator characteristic (ROC) analysis was used. In a first ROC, the dependent variable was treatment and the independent variables were the MASQ subscales. This ROC aimed to define MASQ scale score changes that were characteristic of subjects who received Compound A and not characteristic of those who received placebo. Such score changes can be thought to distinguish Compound A responders from Compound A non-responders. Of the five MASQ subscales, General Distress Mixed (GDM) and Depressive (GDD) subscales differentiated Compound A from placebo subjects. […] Similar results were obtained when the dependent variables were analyzed as percent, rather than absolute, change from baseline.
The interaction of AVP (high v normal) and treatment (Compound A v placebo) is shown below. The dependent variables were the MASQ scale scores and the Hamilton Depression Rating Scale (HAM-D)—version score on Day 7. The corresponding scale score on Day −2 was a covariate in each model. Each model included factors for investigator, AVP, treatment and the interaction of AVP and treatment. […] MASQ total scores were normalized to a 1 to 5 scale.

Experiment [2] has as its system HPA axis activity. Nature of the experiment: Urine glucocorticoids in healthy adults who received Compound A or placebo. The source says:
Higher urine glucocorticoids subjects are those in whom Compound A effects larger decreases of tonic HPA axis activity, and thus an appropriate population for treatment of MDD using a V1B antagonist.

Experiment [3] relates to subjects with MDD. Nature of the experiment: Randomized, placebo-controlled, double-blind clinical study in subjects with MDD: MASQ and HAM-D symptom scores. The source holds these as a separate data set.
The test system of experiment [4] is HPA axis activity. Nature of the experiment: HPA axis function measures (plasma ACTH, serum, saliva and urine cortisol, urine glucocorticoids) in MDD subjects of the clinical study. The note with it: for Reduction of urine glucocorticoids compared to placebo: Day 6 to 7. The procedure: Higher urine glucocortioids was defined as ≧3.44 mg per mg creatinine, in a 24-hour collection on the day prior to initiation of study drug administration. The analysis of covariance model for Day 6 to 7 urine glucocorticoids included Day −2 to −1 (baseline) urine glucocorticoids as a covariate and factors for investigator, treatment and treatment * baseline urine glucocorticoids interaction.
as §1
In a ROC analysis, the dependent variable was responder status based on a cutoff on GDM of −0.53. The independent variable was baseline amount of urine glucocorticoids (the sum of cortisol, cortisone, alpha-tetrahydrocortisol, beta-tetrahydrocortisol and tetrahydrocortisone) collected during a 24-hour interval, divided by the amount of creatinine in the same urine collection. The optimal cutoff was 3.44 mg glucocorticoids per mg creatinine. This provided a sensitivity of 58% (14/24 Compound A responders included) and specificity of 67% (4 of 6 Compound A non-responders excluded). One Compound A subject was not included in this analysis due to missing urine glucocorticoid data.

Experiment [5] deals with physiological response to a stressor (CRH challenge). Nature of the experiment: Cortisol reactivity to a CRH challenge in MDD subjects of the clinical study. The note with it: maximum post-CRH serum cortisol divided by pre-CRH serum cortisol, Day 7.
Source text: as §1, with “High AVP was defined as ≧8.6 pg/mL, in a sample drawn at approximately 8 am or 2 pm on the day prior to initiation of study drug administration. The analysis of covariance model for Day 7 cortisol reactivity included Day −1 (baseline) cortisol reactivity as a covariate and factors for investigator, treatment, AVP class and treatment * AVP class interaction. A randomized,” for “A randomized,”, “A administration. […]” for “A administration.”

The mark [6] stands for this setting: Compound A 800 mg QD for 7 days v placebo, MDD subjects.
Setting [7] is: ROC, dependent variable treatment (Compound A 800 mg QD, n=31, v placebo, n=20), MASQ GDM score change, cutoff X −0.53.
Where [8] appears, read: high AVP ≧8.6 pg/mL, Compound A 800 mg QD v placebo.
The mark [9] stands for this setting: ROC, dependent variable treatment (Compound A 800 mg QD, n=31, v placebo, n=20), MASQ GDD score change, cutoff X −0.58.

Regarding `CCOc1ncccc1[C@]1(NC(=O)N2CCN(C3CCN(C)CC3)CC2)C(=O)N(S(=O)(=O)c2ccc(OC)cc2OC)c2ccc(C#N)cc21` [Compound A], in experiment [1] (setting [6]), the “ANCOVA factor for treatment on MASQ GDM and GDD subscales” value is listed as “statistically significant factors for treatment”. For the same molecule, the results for the “False Negative” value in experiment [1] (setting [7]) and in experiment [3] (setting [9]) were 7 and 3, respectively. In addition, the “True Positive” value in experiment [1] (setting [7]) turned out to be 24; in experiment [3] (setting [9]) it was 28. The “Interaction of AVP (high v normal) and treatment, MASQ GDD score on Day 7” value in experiment [1] (setting [8]) was “statistically significant”. In experiment [1] (setting [8]), the “Interaction of AVP (high v normal) and treatment, MASQ GDM, AD and 7-item HAM-D scores on Day 7” value is listed as “numerically favorable trends”. Moreover, in experiment [2], the “Relationship of baseline urine glucocorticoids and reduction of urine glucocorticoids compared to placebo” value is reported as “The same relationship has been observed”. Moreover, the “ANCOVA factor for treatment on MASQ AD, AA and GDA subscales” value in experiment [3] (setting [6]) is reported as “not”. The “Interaction of urine glucocorticoids divided by creatinine (higher v lower) and treatment, MASQ GDM, GDD, GDA, AA and 17- and 7-item HAM-D” value in experiment [3] (higher ≧3.44 mg per mg creatinine, 24-hour collection) is “numerically favorable trends”. In addition, the “Interaction of urine glucocorticoids divided by creatinine (higher v lower) and treatment, MASQ and HAM-D scores on Day 7” value in experiment [3] (higher ≧3.44 mg per mg creatinine, 24-hour collection, all dependent variables) is on record as “not statistically significant”. The “Symptom changes on MASQ and HAM-D” value in experiment [3] (subset of subjects distinguished by AVP, copeptin and rs7088418/rs17169521 genotypes) is recorded as “more favorable symptom changes”; in experiment [3] (subset of subjects distinguished by NR3C1 genotypes (rs10482672; similar for rs17100236)), “unfavorable symptom changes”. Also, the “Neuroendocrine effects on plasma ACTH, serum cortisol, urine cortisol and total glucocorticoids, high AVP v normal AVP subjects” value in experiment [4] (MDD subjects, comparison of the two AVP groups) was “did not differ”. The “Reduction of urine glucocorticoids compared to placebo” value is reported as “larger reductions of urine glucocorticoids” in experiment [4] (higher urine glucocorticoids MDD subjects (≧3.44 mg per mg creatinine at baseline)) and “limited or no difference of reduction of urine glucocorticoids” in experiment [4] (lower urine glucocorticoids MDD subjects). The “Physiological response to a stressor (CRH challenge) compared to placebo” value is given as “lower physiological response to a stressor” in experiment [5] (high AVP MDD subjects) and “limited or no difference of stress response” in experiment [5] (normal AVP MDD subjects).
